# Earlier results, collected in patent US20150313913A1, “POSITIVE ALLOSTERIC MODULATORS OF THE GABA-A RECEPTOR IN THE TREATMENT OF AUTISM” (UNIVERSITY OF WASHINGTON THROUGH ITS CENTER FOR …, priority 2013, published 2015).
# Read-outs that look alike come from different tables or passages of the source.
# Columns and labels:
# [1] = cited from earlier work; for Dose in humans for anti-anxiety, anti-convulsive, or sedative effects, per day: Table 1, typical daily dose; for Dose in humans for anti-anxiety, anti-convulsive, or sedative effects (dose range, typical or average dose): Table 1, values not marked *
# [2] = test system: GABA-A receptor; conditions: cited from earlier work; for Effect at GABA-A receptor: Table 1, exemplary benzodiazepines
# [3] = Table 4, exemplary non-BDZ GABA-A enhancers
Structure (SMILES),"Dose in humans for anti-anxiety, anti-convulsive, or sedative effects: equivalent dose to 10 mg diazepam ([1]; Table 1, values marked *)",Effect at GABA-A receptor [2],also measured
O=C1CN=C(c2ccccc2)c2cc(Cl)ccc2N1CC(F)(F)F [Halazepam],20 to 40 mg,Agonist,
CN1CCN(C(=O)O[C@H]2c3nccnc3C(=O)N2c2ccc(Cl)cn2)CC1 [Eszopiclone],,,"Dose in humans for anti-anxiety, anti-convulsive, or sedative effects: equivalent dose to 10 mg diazepam ([1]; Table 4, values marked *): 3 mg; Effect at GABA receptor [2, 3]: Agonist"
O=C1CN=C(c2ccccn2)c2cc(Br)ccc2N1 [Bromazepam],5 to 6 mg,Agonist,
CCC1C(C)=NN=C(c2ccc(OC)c(OC)c2)c2cc(OC)c(OC)cc21 (stereo not drawn) [Tofisopam],,Agonist,"Dose in humans for anti-anxiety, anti-convulsive, or sedative effects, per day [1]: Typical dose 50- 300 mg/day in divided doses"
Cc1nnc2n1-c1sc(Br)cc1C(c1ccccc1Cl)=NC2 [Brotizolam],0.25 mg,Agonist,"Dose in humans, sedative ([1]; Table 1, Sedative): 0.125 to 25 mg; Dose in humans, anti-anxiety ([1]; Table 1, anti-anxiety): 80 to 100 mg"
CCc1cc2c(s1)-n1c(C)nnc1CN=C2c1ccccc1Cl [Etizolam],0.5 to 1 mg,Full agonist,
CCOC(=O)C1N=C(c2ccccc2F)c2cc(Cl)ccc2NC1=O (stereo not drawn) [Ethyl loflazepate],2 mg,Agonist (Prodrug),
O=C1Nc2ccc(Cl)cc2C(c2ccccc2)=NC1O (stereo not drawn) [Oxazepam],20 mg,Agonist Short- acting,"Dose in humans, mild/moderate anxiety ([1]; Table 1, 1 to 2 times daily): 10 to 15 mg; Dose in humans, severe anxiety ([1]; Table 1, 3 to 4 times daily): 15 to 30 mg; Dose in humans, symptoms related to alcohol withdrawal ([1]; Table 1, 3 to 4 times daily): 15 to 30 mg"
CN1C(=O)CN=C(c2ccccc2F)c2cc([N+](=O)[O-])ccc21 [Flunitrazepam],1 mg,Agonist,
O=C1Nc2ccc(Cl)cc2C(c2ccccc2Cl)=NC1O (stereo not drawn) [Lorazepam],1 mg,Agonist High- potency,
CN1C(=O)CN=C(C2=CCCCC2)c2cc(Cl)ccc21 [Tetrazepam],100 mg,Agonist,"Dose in humans for anti-anxiety, anti-convulsive, or sedative effects, per day [1]: 50 to 300 mg/day"
O=C1CN=C(c2ccccc2F)c2cc(Cl)ccc2N1CC1CC1 [Flutoprazepam],2 to 3 mg,Agonist,
CCc1cc2c(s1)N(C)C(=O)CN=C2c1ccccc1Cl [Clotiazepam],5 to 10 mg,Full agonist,
CNC1=Nc2ccc(Cl)cc2C(c2ccccc2)=[N+]([O-])C1 [Chlordiazepoxide],25 mg,Agonist Long- acting,
O=C1CN=C(c2ccccc2Cl)c2cc(Br)ccc2N1 [Phenazepam],1 mg,Agonist,"Dose in humans for anti-anxiety, anti-convulsive, or sedative effects (dose range, typical or average dose) [1]: 0.5 mg"
O=C1CN=C(c2ccccc2)c2cc([N+](=O)[O-])ccc2N1 [Nitrazepam],10 mg,Full agonist Long- acting,
CC(C)(C)C(O)/C=C/c1ccc2c(c1)OCO2 (stereo not drawn) [Stiripentol],,,"Dose in humans for anti-anxiety, anti-convulsive, or sedative effects ([1]; Table 4): 50-100 mg/kg/day (max daily dose 4 g)"
Cc1nnc2n1-c1ccc(Br)cc1C(c1ccccn1)=NC2 [Pyrazolam],1 mg,Agonist,
CN1C(=O)CN=C(c2ccccc2)c2cc([N+](=O)[O-])ccc21 [Nimetazepam],5 mg,Agonist,
CN1C(=O)CN=C(c2ccccc2)c2cc(Cl)ccc21 [Diazepam],10 mg,Agonist Long- acting,dose typically administered to achieve an anxiolytic or anti-convulsive effect ([1]; 2-4 times daily): 2 to 10 mg
CCN(C(C)=O)c1cccc(-c2ccnc3c(C#N)cnn23)c1 [Zaleplon],,,"Dose in humans for anti-anxiety, anti-convulsive, or sedative effects (marked *) ([1]; Table 2): 20 mg; Effect at GABA receptor ([2]; Table 2, exemplary SS-PAMs): Full agonist α1 selective Acts on α2,3 at higher doses Ultra short- acting"
Cc1nnc2n1-c1ccc(Cl)cc1C(c1ccccc1)=NC2 [Alprazolam],,Full agonist,"Dose in humans for anti-anxiety, anti-convulsive, or sedative effects (dose range, typical or average dose) [1]: dose range of 0.5 to 3.0 mg"

Structure (SMILES),"Dose in humans for anti-anxiety, anti-convulsive, or sedative effects: equivalent dose to 10 mg diazepam ([1]; Table 1, values marked *)",Effect at GABA-A receptor [2],also measured
CCN(CC)CCN1C(=O)CN=C(c2ccccc2F)c2cc(Cl)ccc21 [Flurazepam],15 to 30 mg,Partial agonist,
CC1=CC(=O)N2CC(=O)N(C)c3ccc(Cl)cc3C2(c2ccccc2)O1 (stereo not drawn) [Ketazolam],15 to 30 mg,Agonist,
O=C1CN=C(c2ccccc2)c2cc(Cl)ccc2N1 [Nordazepam],10 mg,Partial agonist,
CN(C(=O)CNC(=O)[C@@H](N)CCCCN)c1ccc(Cl)cc1C(=O)c1ccccc1 [Avizafone],,Full agonist,"Dose in humans for anti-anxiety, anti-convulsive, or sedative effects ([1]; Table 1): 3.5 mg/kg"
Clc1ccc2c(c1)C(c1ccccc1)=NCc1nncn1-2 [Estazolam],2 mg,Agonist,
Cc1ncc2n1-c1ccc(Cl)cc1C(c1ccccc1F)=NC2 [Midazolam],7.5 mg,Agonist Short- acting,
O=C(O)C1N=C(c2ccccc2)c2cc(Cl)ccc2NC1=O (stereo not drawn) [Clorazepate],15 mg,Partial Agonist (Prodrug),"Dose in humans for anti-anxiety, anti-convulsive, or sedative effects, per day [1]: 15 to 60 mg/day"
CN1C(=O)C(O)N=C(c2ccccc2)c2cc(Cl)ccc21 (stereo not drawn) [Temazepam],20 mg,Agonist,
Cc1c2c(cn1C)NC(=O)CN=C2c1ccccc1 [Premazepam],15 mg,Partial agonist,
CN1CCN=C(c2ccccc2)c2cc(Cl)ccc21 [Medazepam],10 mg,Agonist Long- acting,
CN1C(=O)C(O)N=C(c2ccccc2Cl)c2cc(Cl)ccc21 (stereo not drawn) [Lormetazepam],1.5 mg,Agonist Short- acting,
O=C1CN2CCOC2(c2ccccc2Cl)c2cc(Cl)ccc2N1 (stereo not drawn) [Cloxazolam],1 mg,Agonist (Prodrug),
CN1CCN(/C=C2\N=C3CN=C(c4ccccc4Cl)c4cc([N+](=O)[O-])ccc4N3C2=O)CC1 [Loprazolam],2 mg,Agonist,"Dose in humans for anti-anxiety, anti-convulsive, or sedative effects (dose range, typical or average dose) [1]: 1 to 2 mg"
O=C1CN=C(c2ccccc2Cl)c2cc(Cl)ccc2N1 [Delorazepam],1 mg,Agonist,
[O-][N+]1=C(c2ccccc2)c2cc(Cl)ccc2N=C(NCC2CC2)C1 [Cyprazepam],,Agonist,
CN1CCN(C(=O)OC2C3=C(SCCS3)C(=O)N2c2ccc3ccc(Cl)nc3n2)CC1 (stereo not drawn) [Suriclone],,,"Effect at GABA receptor [2, 3]: Agonist"
CP(C)(=O)CN1C(=O)CN=C(c2ccccc2)c2cc(Cl)ccc21 [Fosazepam],60 mg,Agonist Low potency,
N#CCCN1C(=O)C(O)N=C(c2ccccc2F)c2cc(Cl)ccc21 (stereo not drawn) [Cinolazepam],40 mg,Agonist,
O=C1CCNc2ccc(Cl)cc2N1c1ccccc1 [Lofendazam],,Agonist,
CC1COC2(c3ccccc3Cl)c3cc(Cl)ccc3NC(=O)CN12 (stereo not drawn) [Mexazolam],,Agonist,
O=C1COC(N2CCN=C(c3ccccc3Cl)c3cc(Cl)ccc32)=N1 [Reclazepam],,Agonist,
